Measured values published in US5519016A, “Aryl group- or aromatic heterocyclic group-substituted aminoquinolone derivatives and anti-HIV agent” (priority 1992, dated 1996).
≈ marks a conversion by molar mass, not a printed value. Structures can show the parent of a compound that is named as a salt. Where two headings read alike, the source gives them in different places.

Columns and labels:
HIV [1] = settings: literature / WO-A-90-13542; cited from earlier work
HIV [2] = assay: microbe, parasite or virus in culture; assay type: cell-based; settings: for S.I. (selective index, CC50 /EC50): CC50 = 50% growth inhibition of non-infected cells, 7200 min; for EC50: Human immunodeficiency virus 1, MT4, 120 h, 50% CPE inhibition in HIV infected MT-4 cells, 5 days, 37° C.
Description: Exponentially growing MT-4 cells were centrifuged, and the pellets were resuspended in RPMI-1640 medium containing 10% fetal serum (serum medium). Portions of the cell suspension were either inoculated with HIV, or left uninfected. Serum medium was then further added to the suspensions, which were then washed and centrifuged. The resulting pellets were then suspended in serum medium to a concentration of 4×10^5 cells/mi. Preparations of the test compound (in serum medium) were […] in a stepwise manner, and 100 μl of each of the solutions were placed in separated wells of a 96-well plastic microtitre plate. 100 μl of each of the cell suspensions (infected and non-infected) were then added to the wells, so that each dilution of each of the test compounds was tested against both infected and noninfected cells. Blanks (not added either of the cells) were also prepared. The preparations were then cultured by standing the plate at 37° C. for 5 days in the presence of 5 % carbon dioxide gas.
At the end of this time, living cells were assayed for CPE inhibitory activity by the spectrophotometric assay of the blue formazan produced by the reduction of MTT [3-(4,5-dimethylthiazol-2-yl) -2,5-diphenyl-tetrazolium bromide]which was added to the preparations.
CPE inhibitory activity was defined as 100% in non-infected cells to which no test compounds had been added, while CPE inhibitory activity was defined as 0% in infected cells to which test compounds had not been added.

Row | EC50 (HIV [2]) | Structure (SMILES) | anti-HIV activity (reported) (HIV [1]) | anti-HIV activity (in words) (HIV [2]) | anti-HIV activity (in words) (HIV [2]; Pauwel method) | S.I. (selective index, CC50 /EC50) (HIV [2])
1 | – | O=C(O)c1cn(C2CC2)c2cc(N3CCNCC3)c(F)cc2c1=O [Ciprofloxacin, reference compound] | anti-HIV activity | little or no anti-HIV activity | – | –
2 | – | C[C@H]1COc2c(N3CCN(C)CC3)c(F)cc3c(=O)c(C(=O)O)cn1c23 [DR-3355, reference compound] | Anti-HIV activity has recently been reported | – | have failed | –
3 | – | CN1CCN(c2cc3c(cc2F)c(=O)c(C(=O)O)cn3-c2ccc(F)cc2)CC1 [Difloxacin, reference compound] | anti-HIV activity | – | little or no anti-HIV activity | –
4 | – | CCn1cc(C(=O)O)c(=O)c2cc(F)c(N3CCNCC3)nc21 [Enoxacin, reference compound] | anti-HIV activity | – | little or no anti-HIV activity | –
5 | 0.015 µg/mL | COc1ccccc1N1CCN(c2c(F)cc3c(=O)c(C(=O)O)cn(C4CC4)c3c2OC(F)F)CC1 [Example 1, 1-cyclopropyl-6-fluoro-8-difluoromethoxy-7-[4-(2-methoxyphenyl)piperazin-1-yl]-1,4-dihydro-4-oxoquinoline-3-carboxylic acid.hydrochloride] | – | – | – | 400
6 | 0.03 µg/mL (≈ 0.0634 µM) | O=C(O)c1cn(C2CC2)c2c(OC(F)F)c(N3CCN(c4ccccc4)CC3)c(F)cc2c1=O [Example 2, 1-cyclopropyl-6-fluoro-8-difluoromethoxy-7-(4-phenylpiperazin-1-yl)-1,4-dihydro-4-oxoquinoline-3-carboxylic acid] | – | – | – | 100
7 | 0.02 µg/mL (≈ 0.0407 µM) | O=C(O)c1cn(C2CC2)c2c(OC(F)F)c(N3CCN(c4ccc(F)cc4)CC3)c(F)cc2c1=O [Example 6] | – | – | – | 34
8 | 0.22 µg/mL (≈ 0.437 µM) | COc1cccc(N2CCN(c3c(F)cc4c(=O)c(C(=O)O)cn(C5CC5)c4c3OC(F)F)CC2)c1 [Example 7] | – | – | – | 113
9 | 0.1 µg/mL (≈ 0.199 µM) | COc1ccc(N2CCN(c3c(F)cc4c(=O)c(C(=O)O)cn(C5CC5)c4c3OC(F)F)CC2)cc1 [Example 8, 1-cyclopropyl-6-fluoro-8-difluoromethoxy-7-[4-(4-methoxyphenyl)piperazin-1-yl]-1,4-dihydro-4-oxoquinoline-3carboxylic acid] | – | – | – | 500
10 | 0.5 µg/mL (≈ 0.963 µM) | O=C(O)c1cn(C2CC2)c2c(OC(F)F)c(N3CCN(c4ncccc4[N+](=O)[O-])CC3)c(F)cc2c1=O [Example 17] | – | – | – | 250
11 | 0.07 µg/mL (≈ 0.147 µM) | O=C(O)c1cn(C2CC2)c2c(OC(F)F)c(N3CCN(c4ncccn4)CC3)c(F)cc2c1=O [Example 18, 1-cyclopropyl-6-fluoro-8-difluoromethoxy-7-[4-(2-pyrimidinyl)piperazin-1-yl]-1,4-dihydro-4-oxoquinoline-3-carboxylic acid] | – | – | – | 121
12 | 0.07 µg/mL (≈ 0.137 µM) | O=C(O)c1cn(C2CC2)c2c(OC(F)F)c(N3CCN(c4ncc(Cl)cn4)CC3)c(F)cc2c1=O [Example 19] | – | – | – | 57
13 | 0.037 µg/mL (≈ 0.0719 µM) | O=C(O)c1cn(C2CC2)c2c(OC(F)F)c(N3CCN(c4nc5ccccc5o4)CC3)c(F)cc2c1=O [Example 21] | – | – | – | 16
14 | 0.021 µg/mL (≈ 0.044 µM) | COc1ccccc1N1CCN(c2c(F)cc3c(=O)c(C(=O)O)cn(C)c3c2OC(F)F)CC1 [Example 23, 6-fluoro-8-difluoromethoxy-1-methyl-7-[4-(2-methoxyphenyl)piperazin-1-yl]-1,4-dihydro-4-oxoquinoline-3-carboxylic acid] | – | – | – | 309
15 | 0.07 µg/mL (≈ 0.156 µM) | Cn1cc(C(=O)O)c(=O)c2cc(F)c(N3CCN(c4ncccn4)CC3)c(OC(F)F)c21 [Example 24, 6-fluoro-8-difluoromethoxy-1-methyl-7-[4-(2-pyrimidinyl)piperazin-1-yl]-1,4-dihydro-4-oxoquinoline-3-carboxylic acid] | – | – | – | 257
16 | 0.05 µg/mL (≈ 0.0961 µM) | COc1ccccc1N1CCN(c2c(F)c(N)c3c(=O)c(C(=O)O)cn(C(C)C)c3c2OC(F)F)CC1 [Example 29] | – | – | – | 22

Row | EC50 (HIV [2]) | Structure (SMILES) | anti-HIV activity (reported) (HIV [1]) | anti-HIV activity (in words) (HIV [2]) | anti-HIV activity (in words) (HIV [2]; Pauwel method) | S.I. (selective index, CC50 /EC50) (HIV [2])
17 | 0.23 µg/mL (≈ 0.496 µM) | CCn1cc(C(=O)O)c(=O)c2cc(F)c(N3CCN(c4cnccn4)CC3)c(OC(F)F)c21 [Example 37] | – | – | – | > 109
18 | 0.07 µg/mL (≈ 0.137 µM) | COc1ccccc1N1CCN(c2c(F)cc3c(=O)c(C(=O)O)cn(CCF)c3c2OC(F)F)CC1 [Example 38] | – | – | – | 79
19 | 0.3 µg/mL (≈ 0.646 µM) | CNn1cc(C(=O)O)c(=O)c2cc(F)c(N3CCN(c4ncccn4)CC3)c(OC(F)F)c21 [Example 53] | – | – | – | > 83
20 | 0.01 µg/mL (≈ 0.0203 µM) | CCn1cc(C(=O)O)c(=O)c2cc(F)c(N3CCN(c4ccccc4OC)CC3)c(OC(F)F)c21 [Example 63, 1-ethyl-6-fluoro-8-difluoromethoxy-7-[4-(2-methoxyphenyl)piperazin-1-yl]-1,4-dihydro-4-oxoquinoline-3carboxylic acid] | – | – | – | 1000
21 | 0.08 µg/mL (≈ 0.173 µM) | CCn1cc(C(=O)O)c(=O)c2cc(F)c(N3CCN(c4ncccn4)CC3)c(OC(F)F)c21 [Example 67, 1-ethyl-6-fluoro-8-difluoromethoxy-7-[4-(2-pyrimidinyl)piperazin-1-yl]-1,4-dihydro-4-oxoquinoline-3-carboxylic acid] | – | – | – | > 500
22 | 0.5 µg/mL (≈ 1.06 µM) | COc1ccccc1N1CCN(c2c(F)cc3c(=O)c(C(=O)O)cn(CCF)c3c2OC)CC1 [Example 70] | – | – | – | 20
23 | 1 µg/mL (≈ 2.36 µM) | CC1COc2c(N3CCN(c4ccccn4)CC3)c(F)cc3c(=O)c(C(=O)O)cn1c23 (stereo not drawn) [Example 85] | – | – | – | 17
24 | 0.074 µg/mL (≈ 0.167 µM) | O=C(O)c1cn2c3c(c(N4CCN(c5ncccn5)CC4)c(F)cc3c1=O)OCC2CF (stereo not drawn) [Example 87, 9-fluoro-3-fluoromethyl-10-[4-(2-pyrimidinyl)piperazin-1yl]-2,3-dihydro-7-oxo-7H -pyrido[1,2,3-de][1,4]benzoxazine-6-carboxylic acid] | – | – | – | > 512
25 | 0.8 µg/mL (≈ 2.01 µM) | CCn1cc(C(=O)O)c(=O)c2cc(F)c(N3CCN(c4ncccn4)CC3)nc21 [Example 92] | – | – | – | 31
26 | 0.5 µg/mL (≈ 1.05 µM) | CCn1cc(C(=O)O)c(=O)c2cc(F)c(N3CCN(c4ncccn4)C(C)C3)c(OC(F)F)c21 (stereo not drawn) [Example 94, 1-ethyl-6-fluoro-8-difluoromethoxy-7-[3-methyl-4-(2-pyrimidinyl)piperazin-1-yl]-1,4-dihydro-4-oxoquinoline-3-carboxylic acid] | – | – | – | 21
27 | 0.4 µg/mL (≈ 0.94 µM) | CC(C)(C)n1cc(C(=O)O)c(=O)c2cc(F)c(N3CCN(c4ncccn4)CC3)cc21 [Example 95] | – | – | – | > 62
28 | 1 µg/mL (≈ 2.25 µM) | CCn1cc(C(=O)O)c(=O)c2ccc(N3CCN(c4ncccn4)CC3)c(OC(F)F)c21 [Example 99, 1-ethyl-8-difluoromethoxy-7-[4-(2-pyrimidinyl)piperazin-1-yl]-1,4-dihydro-4-oxoquinoline-3-carboxylic acid] | – | – | – | > 25
29 | 0.4 µg/mL (≈ 0.936 µM) | CC1Sc2c(C(=O)O)c(=O)c3cc(F)c(N4CCN(c5ncccn5)CC4)cc3n21 (stereo not drawn) [Example 100, 6-fluoro-1-methyl-4-oxo-7-[4-(2-pyrimidinyl)piperazin-1-yl]-1H, 4H-[1,3]thiazeto[3,2-a]quinoline-3-carboxylic acid] | – | – | – | 9
30 | – | CCn1cc(C(=O)O)c(=O)c2cc(F)c(N3CCNC(C)C3)c(F)c21 (stereo not drawn) [Lomefloxacin, reference compound] | anti-HIV activity | – | little or no anti-HIV activity | –
31 | – | CCn1cc(C(=O)O)c(=O)c2cc(F)c(N3CCNCC3)cc21 [Norfloxacin, reference compound] | anti-HIV activity | – | little or no anti-HIV activity | –
32 | – | NC1CCN(c2nc3c(cc2F)c(=O)c(C(=O)O)cn3-c2ccc(F)cc2F)C1 (stereo not drawn) [Tosufloxacin, reference compound] | anti-HIV activity | – | little or no anti-HIV activity | –

Row | Structure (SMILES) | EC50 (HIV [2]) | anti-HIV activity (reported) (HIV [1]) | anti-HIV activity (in words) (HIV [2]) | anti-HIV activity (in words) (HIV [2]; Pauwel method) | S.I. (selective index, CC50 /EC50) (HIV [2])
33 | COc1ccccc1N1CCN(c2c(F)cc3c(=O)c(C(=O)O)cn(CCOC(C)=O)c3c2OC(F)F)CC1 [Example 46, 1-(2-acetoxyethyl)-6-fluoro-8-difluoromethoxy-7-[4-(2-methoxyphenyl)piperazin-1-yl]-1,4-dihydro-4-oxoquinoline-3-carboxylic acid] | 0.06 µg/mL (≈ 0.109 µM) | – | – | – | 155
